Results from paper PMC8890653, “Cell-penetrating peptides containing the progesterone receptor polyproline domain inhibits EGF signaling and cell proliferation in lung cancer cells” (PLoS ONE, 2022).

System: PC9-ER cells
Experiment: Cell viability (MTT) of Erlotinib-resistant cells
Settings: Homo sapiens, PC-9/ER, 72 h, read-out: Inhibition of PC9-ER cell proliferation, Erlotinib alone

C#Cc1cccc(Nc2ncnc3cc(OCCOC)c(OCCOC)cc23)c1 [Erlotinib]
inhibition at 0.1 µM: 8%
